In the NIST ThermoML archive (doi:10.1016/j.fluid.2015.03.016):
Several values for one entry are separate records, joined by “and”; a condition that tells them apart may be missing. Equal entries are not always repeated. Numbers after ± are expanded uncertainties.

Conditions: Liquid, Vibrating wire viscometry

CCCCOC(=O)CCCCC(=O)OCCCC [dibutyl hexanedioate]
Conditions | viscosity
303.14 K, 1250 kPa | 4.201 ± 0.07 mPa·s
303.14 K, 1280 kPa | 4.21 ± 0.07 mPa·s
303.14 K, 2750 kPa | 4.305 ± 0.072 mPa·s
303.14 K, 2760 kPa | 4.313 ± 0.072 mPa·s
303.14 K, 2770 kPa | 4.312 ± 0.072 mPa·s
303.14 K, 5400 kPa | 4.417 ± 0.073 mPa·s
303.14 K, 5420 kPa | 4.417 ± 0.073 mPa·s and 4.419 ± 0.073 mPa·s and 4.413 ± 0.073 mPa·s
303.14 K, 7530 kPa | 4.511 ± 0.075 mPa·s
303.14 K, 7570 kPa | 4.513 ± 0.075 mPa·s
303.14 K, 7660 kPa | 4.532 ± 0.075 mPa·s
303.14 K, 10500 kPa | 4.68 ± 0.078 mPa·s
303.14 K, 10520 kPa | 4.686 ± 0.078 mPa·s
303.14 K, 10570 kPa | 4.683 ± 0.078 mPa·s
303.14 K, 20260 kPa | 5.251 ± 0.087 mPa·s
303.14 K, 20300 kPa | 5.25 ± 0.087 mPa·s
303.14 K, 20320 kPa | 5.249 ± 0.087 mPa·s
303.14 K, 65590 kPa | 8.312 ± 0.14 mPa·s
303.15 K, 1220 kPa | 4.205 ± 0.07 mPa·s
303.15 K, 1280 kPa | 4.208 ± 0.07 mPa·s
303.15 K, 1290 kPa | 4.21 ± 0.07 mPa·s
303.15 K, 1300 kPa | 4.211 ± 0.07 mPa·s
303.15 K, 2770 kPa | 4.312 ± 0.072 mPa·s
303.15 K, 5420 kPa | 4.415 ± 0.073 mPa·s and 4.419 ± 0.073 mPa·s
303.15 K, 7660 kPa | 4.531 ± 0.075 mPa·s and 4.537 ± 0.075 mPa·s
303.15 K, 7680 kPa | 4.531 ± 0.075 mPa·s and 4.533 ± 0.075 mPa·s and 4.537 ± 0.075 mPa·s
303.15 K, 7730 kPa | 4.518 ± 0.075 mPa·s
303.15 K, 10560 kPa | 4.689 ± 0.078 mPa·s
303.15 K, 15380 kPa | 4.954 ± 0.082 mPa·s
303.15 K, 15390 kPa | 4.955 ± 0.082 mPa·s and 4.963 ± 0.082 mPa·s and 4.951 ± 0.082 mPa·s
303.15 K, 30100 kPa | 5.839 ± 0.097 mPa·s
303.15 K, 30180 kPa | 5.821 ± 0.096 mPa·s
303.15 K, 30250 kPa | 5.828 ± 0.097 mPa·s
303.15 K, 30290 kPa | 5.827 ± 0.097 mPa·s
303.15 K, 30330 kPa | 5.817 ± 0.097 mPa·s
303.15 K, 30380 kPa | 5.827 ± 0.096 mPa·s
303.15 K, 39970 kPa | 6.452 ± 0.11 mPa·s
303.15 K, 40060 kPa | 6.443 ± 0.11 mPa·s
303.15 K, 40100 kPa | 6.443 ± 0.11 mPa·s
303.15 K, 40150 kPa | 6.446 ± 0.11 mPa·s
303.15 K, 49790 kPa | 7.073 ± 0.12 mPa·s
303.15 K, 49810 kPa | 7.073 ± 0.12 mPa·s
303.15 K, 49830 kPa | 7.07 ± 0.12 mPa·s
303.15 K, 49880 kPa | 7.058 ± 0.12 mPa·s
303.15 K, 65340 kPa | 8.283 ± 0.14 mPa·s
303.15 K, 65490 kPa | 8.277 ± 0.14 mPa·s
313.14 K, 1070 kPa | 3.362 ± 0.056 mPa·s
313.14 K, 1090 kPa | 3.364 ± 0.056 mPa·s
313.14 K, 1110 kPa | 3.371 ± 0.056 mPa·s
313.14 K, 1160 kPa | 3.369 ± 0.056 mPa·s
313.14 K, 2580 kPa | 3.416 ± 0.057 mPa·s
313.14 K, 2590 kPa | 3.412 ± 0.057 mPa·s and 3.414 ± 0.057 mPa·s
313.14 K, 2600 kPa | 3.415 ± 0.057 mPa·s
313.14 K, 2610 kPa | 3.416 ± 0.057 mPa·s
313.14 K, 5050 kPa | 3.518 ± 0.067 mPa·s
313.14 K, 5060 kPa | 3.518 ± 0.067 mPa·s
313.14 K, 7630 kPa | 3.595 ± 0.06 mPa·s
313.14 K, 10470 kPa | 3.713 ± 0.062 mPa·s
313.14 K, 15150 kPa | 3.89 ± 0.065 mPa·s and 3.889 ± 0.065 mPa·s
313.14 K, 15210 kPa | 3.888 ± 0.065 mPa·s
313.14 K, 20300 kPa | 4.123 ± 0.069 mPa·s
313.14 K, 20430 kPa | 4.12 ± 0.069 mPa·s
313.14 K, 20440 kPa | 4.123 ± 0.069 mPa·s
313.14 K, 30160 kPa | 4.553 ± 0.076 mPa·s
313.14 K, 30180 kPa | 4.556 ± 0.076 mPa·s and 4.554 ± 0.076 mPa·s
313.14 K, 30190 kPa | 4.556 ± 0.076 mPa·s
313.14 K, 40210 kPa | 5.026 ± 0.084 mPa·s
313.14 K, 40270 kPa | 5.022 ± 0.083 mPa·s
313.14 K, 40290 kPa | 5.03 ± 0.084 mPa·s
313.14 K, 40330 kPa | 5.028 ± 0.084 mPa·s
313.14 K, 50580 kPa | 5.596 ± 0.093 mPa·s
313.14 K, 50590 kPa | 5.598 ± 0.093 mPa·s
